This is an account of results in PubChem BioAssay AID330 (DTP/NCI, 2004).

The subject of this assay is P388 leukemia ip, CD2F1 mice, survival T/C. Kind of assay: NCI In Vivo Anticancer Drug Screen. Data for tumor model P388 Leukemia (intraperitoneal) in CD2F1 (CDF1) mice. Conditions: endpoint: median survival time, higher = longer survival. In outline: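 Mice carrying the transplanted tumor received test compound or vehicle. Survival was recorded in each group, and the value is the treated-group measurement divided by that of the vehicle-treated control group.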

Setting [1] is: dose: 50.0 mg/kg/injection, schedule: Q01DX005 (ip), vehicle: Klucel (hydroxypropylcellulose) (HPC).
Where [2] appears, read: dose: 100.0 mg/kg/injection, schedule: Q01DX005 (ip), vehicle: Klucel (hydroxypropylcellulose) (HPC).
Where [3] appears, read: dose: 200.0 mg/kg/injection, schedule: Q01DX005 (ip), vehicle: Klucel (hydroxypropylcellulose) (HPC).
Setting [4] is: dose: 400.0 mg/kg/injection, schedule: Q01DX005 (ip), vehicle: Klucel (hydroxypropylcellulose) (HPC).
Where [5] appears, read: dose: 100.0 mg/kg/injection, schedule: Q01DX009 (ip), vehicle: saline.
Setting [6] is: dose: 60.0 mg/kg/injection, schedule: Q01DX005 (ip), vehicle: saline with Tween-80.
Where [7] appears, read: dose: 120.0 mg/kg/injection, schedule: Q01DX005 (ip), vehicle: saline with Tween-80.
[8] abbreviates: dose: 240.0 mg/kg/injection, schedule: Q01DX005 (ip), vehicle: saline with Tween-80.
Where [9] appears, read: dose: 60.0 mg/kg/injection, schedule: Q01DX005 (ip), vehicle: Klucel (hydroxypropylcellulose) (HPC).
Setting [10] is: dose: 120.0 mg/kg/injection, schedule: Q01DX005 (ip), vehicle: Klucel (hydroxypropylcellulose) (HPC).
Setting [11] is: dose: 50.0 mg/kg/injection, schedule: Q01DX009 (ip), vehicle: saline with Tween-80.
Setting [12] is: dose: 100.0 mg/kg/injection, schedule: Q01DX009 (ip), vehicle: saline with Tween-80.
The mark [13] stands for this setting: dose: 200.0 mg/kg/injection, schedule: Q01DX009 (ip), vehicle: saline with Tween-80.
Setting [14] is: dose: 100.0 mg/kg/injection, schedule: Q04DX002 (ip), vehicle: saline.
Where [15] appears, read: dose: 200.0 mg/kg/injection, schedule: Q04DX002 (ip), vehicle: saline.

“And” between values parts separate entries of the source, which are not always exact repeats. Equal values may be shown once. Inconclusive results and toxic doses are left out.

For `CCN(CC)C1CC(=O)C2(C)C3CCC4(C)C(C(C)C5CC(C)=C(CO)C(=O)O5)CCC4C3CC3OC32C1O` (stereo not given), the T/C (dose: 4.5 mg/kg/injection, schedule: Q01DX005 (ip), vehicle: Klucel (hydroxypropylcellulose) (HPC)) was 98 % of control; the T/C (dose: 9.0 mg/kg/injection, schedule: Q01DX005 (ip), vehicle: Klucel (hydroxypropylcellulose) (HPC)) is 93 % of control; the T/C (dose: 18.0 mg/kg/injection, schedule: Q01DX005 (ip), vehicle: Klucel (hydroxypropylcellulose) (HPC)) was 100 % of control; the T/C (dose: 36.0 mg/kg/injection, schedule: Q01DX005 (ip), vehicle: Klucel (hydroxypropylcellulose) (HPC)) was 98 % of control; the T/C (dose: 72.0 mg/kg/injection, schedule: Q01DX005 (ip), vehicle: Klucel (hydroxypropylcellulose) (HPC)) is 100 % of control.

Take `Nc1nc2c(ncn2C2OC(CO)C(O)C2O)c(=O)o1` (stereo not given): the T/C runs as follows: under setting [1], 106 % of control; under setting [2], 112 % of control; under setting [3], 116 % of control; under setting [4], 111 % of control.

For `CCOC1OCN(C)CC1(C)C` (stereo not given), the T/C was 109 % of control (dose: 50.0 mg/kg/injection, schedule: Q04DX003 (ip), vehicle: saline); 150 % of control under setting [5]; 113 % of control (dose: 100.0 mg/kg/injection, schedule: Q04DX003 (ip), vehicle: saline); 109 % of control (dose: 200.0 mg/kg/injection, schedule: Q04DX003 (ip), vehicle: saline).

As to `COC(=O)CC(CCCCCCCCCCCCC(C)C)OC(C)=O` (stereo not given), the T/C reads like this: (dose: 8.13 mg/kg/injection, schedule: Q01DX005 (ip), vehicle: Klucel (hydroxypropylcellulose) (HPC)) 94 % of control; (dose: 16.25 mg/kg/injection, schedule: Q01DX005 (ip), vehicle: Klucel (hydroxypropylcellulose) (HPC)) 96 % of control; (dose: 32.5 mg/kg/injection, schedule: Q01DX005 (ip), vehicle: Klucel (hydroxypropylcellulose) (HPC)) 99 % of control; (dose: 65.0 mg/kg/injection, schedule: Q01DX005 (ip), vehicle: Klucel (hydroxypropylcellulose) (HPC)) 112 % of control.

On to `NC1=NCCCN1`, for which the T/C reads like this: (dose: 3.0 mg/kg/injection, schedule: Q01DX009 (ip), vehicle: saline) 95 % of control; (dose: 6.0 mg/kg/injection, schedule: Q01DX009 (ip), vehicle: saline) 104 % of control; (dose: 12.0 mg/kg/injection, schedule: Q01DX009 (ip), vehicle: saline) 90 % of control.

Take `CCOC(=O)N1C=CC(C2C=CN(C(=O)OCC)C=C2)C=C1`: the T/C was 111 % of control (dose: 10.0 mg/kg/injection, schedule: Q01DX009 (ip), vehicle: saline with Tween-80); 96 % of control (dose: 20.0 mg/kg/injection, schedule: Q01DX009 (ip), vehicle: saline with Tween-80); 105 % of control (dose: 40.0 mg/kg/injection, schedule: Q01DX009 (ip), vehicle: saline with Tween-80).

Regarding `COc1ccccc1/C=C1/C(=O)ON=C1C`, the T/C is, setting by setting: under setting [6], 100 % of control; under setting [7], 98 % of control; under setting [8], 108 % of control.

On to `O=C(O)c1ccc2c(c1Sc1ccccc1)C(=O)c1ccccc1C2=O`, for which the T/C reads like this: under setting [9], 110 % of control; under setting [10], 107 % of control.

As for `CS(=O)(=O)OCC1OC(n2ncc(=O)[nH]c2=O)C(O)C1O` (stereo not given), the T/C was 100 % of control under setting [11], 95 % of control under setting [12] and 101 % of control under setting [13].

For `Clc1nc(Cl)c2c3c(sc2n1)CCCC3`, the T/C runs as follows: under setting [9], 91 % of control; under setting [10], 90 % of control; (dose: 240.0 mg/kg/injection, schedule: Q01DX005 (ip), vehicle: Klucel (hydroxypropylcellulose) (HPC)) 99 % of control.

Regarding `CCCNC(=O)/C(C)=C(\C)c1ccccc1`, the T/C runs as follows: (dose: 50.0 mg/kg/injection, schedule: Q04DX003 (ip), vehicle: Klucel (hydroxypropylcellulose) (HPC)) 100 % of control; (dose: 100.0 mg/kg/injection, schedule: Q04DX003 (ip), vehicle: Klucel (hydroxypropylcellulose) (HPC)) 99 % of control; (dose: 200.0 mg/kg/injection, schedule: Q04DX003 (ip), vehicle: Klucel (hydroxypropylcellulose) (HPC)) 100 % of control.

For the molecule `c1ccc2c(c1)[nH]c1c2c(N2CCOCC2)nn2cnnc12`, the T/C reads like this: (dose: 6.25 mg/kg/injection, schedule: Q01DX005 (ip), vehicle: Klucel (hydroxypropylcellulose) (HPC)) 101 % of control; (dose: 12.5 mg/kg/injection, schedule: Q01DX005 (ip), vehicle: Klucel (hydroxypropylcellulose) (HPC)) 100 % of control; (dose: 25.0 mg/kg/injection, schedule: Q01DX005 (ip), vehicle: Klucel (hydroxypropylcellulose) (HPC)) 89 % of control; under setting [1], 99 % of control; under setting [6], 95 % of control; under setting [2], 100 % of control. For the same molecule, the T/C reads like this: under setting [7], 93 % of control; under setting [8], 98 % of control.

`O=P(CCC(O)c1ccccc1)(c1ccccc1)c1ccccc1` (stereo not given): the T/C (dose: 25.0 mg/kg/injection, schedule: Q01DX009 (ip), vehicle: saline sonified) was 100 % of control and the T/C (dose: 50.0 mg/kg/injection, schedule: Q01DX009 (ip), vehicle: saline sonified) was 90 % of control.

For the molecule `CCN(CC)C(=O)N1CC1`, the T/C is 102 % of control under setting [14] and 100 % of control under setting [15].

As for `Nc1cc(S(=O)(=O)O)c(Br)c(Br)c1Br`, the T/C is 94 % of control (dose: 50.0 mg/kg/injection, schedule: Q01DX009 (ip), vehicle: saline); 95 % of control under setting [5]; 90 % of control (dose: 200.0 mg/kg/injection, schedule: Q01DX009 (ip), vehicle: saline).

For the molecule `OC1CCN(c2c3ccccc3nc3ccccc23)CC1`, the T/C is, setting by setting: (dose: 12.5 mg/kg/injection, schedule: Q04DX002 (ip), vehicle: saline) 105 % of control; (dose: 25.0 mg/kg/injection, schedule: Q04DX002 (ip), vehicle: saline) 113 % of control.

Turning to `COC(=O)c1ccn2c1CCC2`, the T/C by setting is: (dose: 25.0 mg/kg/injection, schedule: Q01DX009 (ip), vehicle: Klucel (hydroxypropylcellulose) (HPC)) 91 % of control; (dose: 50.0 mg/kg/injection, schedule: Q01DX009 (ip), vehicle: Klucel (hydroxypropylcellulose) (HPC)) 91 % of control; (dose: 100.0 mg/kg/injection, schedule: Q01DX009 (ip), vehicle: Klucel (hydroxypropylcellulose) (HPC)) 95 % of control; (dose: 200.0 mg/kg/injection, schedule: Q01DX009 (ip), vehicle: Klucel (hydroxypropylcellulose) (HPC)) 98 % of control; (dose: 400.0 mg/kg/injection, schedule: Q01DX009 (ip), vehicle: Klucel (hydroxypropylcellulose) (HPC)) 91 % of control.

In the case of `Cc1cc(C)n(-c2ccc3nnnn3n2)n1`, the T/C under setting [14] is 93 % of control; the T/C under setting [15] was 93 % of control; the T/C (dose: 400.0 mg/kg/injection, schedule: Q04DX002 (ip), vehicle: saline) was 102 % of control.

`CCOc1ccc(/C=N/NC(=O)C(O)c2ccccc2)cc1OC` (stereo not given): the T/C under setting [6] is 96 % of control, the T/C under setting [7] was 100 % of control and the T/C under setting [8] is 94 % of control.

For the molecule `O=c1cc(-c2ccccc2)[nH]c2[nH]n(-c3ccccc3)c(=O)c12`, the T/C runs as follows: under setting [6], 110 % of control; under setting [7], 104 % of control; under setting [8], 94 % of control.

For `CC(=O)N(CCCCCCN(C(C)=O)C(C)=O)C(C)=O`, the T/C reads like this: under setting [1], 96 % of control; under setting [2], 105 % of control; under setting [3], 92 % of control; under setting [4], 94 % of control.

`COC(=O)[C@]1(O)Cc2c(O)c3c(c(O)c2[C@@H](OC2CC(N)C(O)C(C)O2)C1)C(=O)c1c(OC)cccc1C3=O` (stereo not given in full): the T/C (dose: 1.56 mg/kg/injection, schedule: Q01DX009 (ip), vehicle: water) was 110 % of control; the T/C (dose: 3.13 mg/kg/injection, schedule: Q01DX009 (ip), vehicle: water) was 108 % of control; the T/C (dose: 6.25 mg/kg/injection, schedule: Q01DX009 (ip), vehicle: water) is 109 % of control and 114 % of control; the T/C (dose: 12.5 mg/kg/injection, schedule: Q01DX009 (ip), vehicle: water) was 116 % of control and 118 % of control; the T/C (dose: 25.0 mg/kg/injection, schedule: Q01DX009 (ip), vehicle: water) was 116 % of control.

With `O=C1C2(CC3C=CC2C3)C(=O)C12CC1C=CC2C1` (stereo not given), the T/C reads like this: under setting [11], 102 % of control; under setting [12], 100 % of control; under setting [13], 103 % of control.
